Reference: patent US20130123319A1, “Medthod of Treating a systemic inflammatory disorder and damaged internal tissues” (priority 2011, published 2013)
Like-named read-outs stand apart in the source and are kept apart here.

What was measured:
[1] = tested on: Myasthenia Gravis without Thymoma; assay: Case report: patient with Myasthenia Gravis given intravenous nutritional infusion; assay type: in vivo, human; settings: day 5 of the hospitalization
Experimental: In 1990 I began to treat a patient with Myasthenia Gravis without Thymoma, an autoimmune disorder, which causes a decrease in the availability of Acetylcholine at the muscle endplate. Pyridostigmine, which increases the amount of Acetylcholine available at the endplate, and later Prednisone, was added for control of their myasthenia. The later acts by reducing the inflammatory response at the muscle endplate. In 1992 they underwent a bowel operation for correction of an enterorectal fistula and was unable to eat orally or gastrically to be fed. They were put on the standardized intravenous nutritional protocol in the hospital in which I worked, which included 3% Glycerin plus 3% Amino Acids, (see Table 1) at a rate of 100 ccs/hour. This was given for 6 days. There was no change in their Myasthenia Gravis. Twelve days later they were readmitted with abdominal pain and the same IV nutrition was administered. On day 5 of the hospitalization they developed a cholinergic crisis, which was relieved by Atropine. Pyridostigmine and Prednisone were discontinued. […] They were readmitted to the hospital 4 years later because of difficulty swallowing and again was given intravenous 3% Glycerin and 3% Amino Acids. […]

Behcet's Disease = assay: Case reports: patients with exacerbation of Behcet's Disease; assay type: in vivo, human
Text: Behcet's Syndrome is a worldwide disorder that seems to be more severe and more common along the Silk Route and in Japan.
This happened back in the year 2000.

[2] = in vivo, cited from earlier work
bacteria = settings: virus specimens; more potent when mixed with serum; cited from earlier work

SMILES: CN1[C@@H]2CC[C@H]1C[C@@H](OC(=O)C(CO)c1ccccc1)C2 (some centres unmarked) [Atropine]
- cholinergic crisis [1]: relieved

SMILES: C[C@]12C=CC(=O)C=C1CC[C@@H]1[C@@H]2C(=O)C[C@@]2(C)[C@H]1CC[C@]2(O)C(=O)CO [Prednisone, reference compound]
- response of Behcet's exacerbation (Behcet's Disease; eleven patients, high dose): failed to respond
- response of Behcet's exacerbations (Behcet's Disease; over 20 patients since 2000, high doses): usually responded

SMILES: OCC(O)CO [Glycerin]
- rate of improvement in autoimmune diseases, especially Behcet's Disease (Behcet's Disease; inventor's review of the cases): quick or rapid improvement
- central nervous system involvement (Behcet's Disease; one patient with neuro-Behcet's disease): improved central nervous system involvement rapidly
- toxicity [2]: low toxicity
- toxicity ([2]; listed as Sterilized Glycerin): non-toxic
- bacteria in the specimens (bacteria): reduced bacteria
